# Like-named read-outs stand apart in the source and are kept apart here. Marks after values point to notes of the source that are not given here.
# Tests used:
# Type in all cases: cell-based
# S. epidermidis UC-20207 [1] = assay: Determination of minimum inhibitory concentration (microdilution); conditions: Staphylococcus epidermidis, UC20207, 18 h, read-out: MIC (minimum inhibitory concentration)
# S. epidermidis UC-20208 [2] = assay: as above; conditions: Staphylococcus epidermidis, UC20208, 18 h, read-out: MIC (minimum inhibitory concentration)
# S. epidermidis RP62A [3] = assay: Microtiter-plate adherence assay on polystyrene; conditions: 18 h; for Adherence Mean OD550: S. epidermidis RP62A
# Description: (§1) Briefly, the inoculum was established by the direct colony suspension method using the Prompt™ Inoculation System (Becton Dickinson, Sparks, Md.). The bacteria suspension, which was equal to the turbidity of a 0.5 McFarland standard, was diluted in TSB to a concentration of 1×10^6 colony forming units per ml (CFU/mL). One hundred microliters of the cell suspension was added to flat-bottom polystyrene wells (Corning Costar, Corning, N.Y.) containing 100 μl of TSB, with and without drug. The final inoculum concentration per well was approximately 5×10^5 CFU/mL. The plates were incubated at 37° C. under static conditions in air. At 18 hours (h) post-infection, the optical density of bacterial growth was measured at a wavelength of 595 nm in a microtiter plate reader (Vmax; Molecular Devices, Sunnyvale, Calif.). […] Adherent “sessile” cells then were fixed with 3.7% (v/v) formaldehyde/2% (w/v) sodium acetate and stained with 0.1% (w/v) crystal violet. Excess stain was rinsed off with deionized water and the plates were air-dried for 4 h. The optical density of bacterial adherence was determined at a wavelength of 550 nm. […] To compensate for background absorbance, optical density readings from wells treated with sterile medium, fixative and stain as described above were averaged and then subtracted from all test and control wells. Relative inhibition of adherence or growth was expressed by the following equation: (OD of control well−OD of treated well/OD of control well)×100, where OD is the mean optical density of six replicate wells from two separate experiments (three replicates per experiment). Control was defined as infected, drug-free cultures.
# (§2) The primary efficacy variable in this study was the measurement of adherent bacterial cells to polystyrene after 18 h of growth. To determine whether statistically significant differences existed between treatment groups (MIC, ½ MIC, and ¼ MIC) compared with the infected-nontreated controls, the Kruskal-Wallis one-way analysis of variance (ANOVA) was applied for each clinical strain. Statistical significance was defined as p-values ≦0.05. An asterisk (*) was placed by all test values less than or equal to the specified significance level.
# S. epidermidis UC-20207 [4] = assay: Microtiter-plate adherence assay on polystyrene; conditions: for Adherence Mean OD550: S. epidermidis UC-20207, 18 h
# Description: as §1, §2
# S. epidermidis RP62A [5] = assay: Time course adherence assay (prophylactic and delayed treatment); conditions: for inhibition at 1 µg/mL / inhibition at 2 µg/mL / inhibition at 4 µg/mL / inhibition at 8 µg/mL: Staphylococcus epidermidis, read-out: Percent inhibition of bacterial adherence relative to controls
# Description: (§3) Drug effects on bacterial adherence were measured 18 hours after treatment initiation using a quantitative spectrophotometric assay.
# (§4) Relative inhibition of adherence was expressed by the following equation: (OD of control well−OD of treated well/OD of control well)×100, where OD is the mean optical density of six replicate wells from two separate experiments (three replicates per experiment). Control was defined as infected, drug-free cultures.
# (§5) The primary efficacy variable in this study was the measurement of adherent bacteria to polystyrene surfaces after 18 hours to 24 hours of growth. To determine whether statistically significant differences existed between treatments (4×MIC, 2×MIC, MIC, and ½ MIC) compared with the infected-nontreated controls, multiple comparisons according to Dunnett's test (Montgomery, Design and Analysis of Experiments (1991)) were applied for each clinical strain. Differences were considered statistically significant when p<0.05.
# S. epidermidis UC-20208 [6] = assay: as above; conditions: for inhibition at 1 µg/mL / inhibition at 2 µg/mL / inhibition at 4 µg/mL / inhibition at 8 µg/mL: Staphylococcus epidermidis, read-out: Percent inhibition of bacterial adherence relative to controls; for Mean OD550: UC-20208
# Description: as §3, §4, §5
# [7] = test system: S. epidermidis isolates (UC-20207, UC-20208, and RP62A); assay: Time course adherence assay, summary over three S. epidermidis isolates
# Description: as §3, §4, §5
# [8] = Staphylococcus epidermidis, RP62A, read-out: Adherence % Inhibition
# [9] = Staphylococcus epidermidis, UC20207, 18 h, read-out: Adherence % Inhibition
# [10] = 1.0 μg/ml, treatment 0 h post-infection
# [11] = 1.0 μg/ml, treatment 2 h post-infection
# [12] = 1.0 μg/ml, treatment 4 h post-infection
# [13] = 1.0 μg/ml, treatment 6 h post-infection
# [14] = 2.0 μg/ml (MIC), treatment 0 h post-infection
# [15] = 2.0 μg/ml (MIC), treatment 2 h post-infection
# [16] = 2.0 μg/ml (MIC), treatment 4 h post-infection
# [17] = 2.0 μg/ml (MIC), treatment 6 h post-infection
# [18] = 4.0 μg/ml, treatment 0 h post-infection
# [19] = 4.0 μg/ml, treatment 2 h post-infection
# [20] = 4.0 μg/ml, treatment 4 h post-infection
# [21] = 4.0 μg/ml, treatment 6 h post-infection
# [22] = 8.0 μg/ml, treatment 0 h post-infection
# [23] = 8.0 μg/ml, treatment 2 h post-infection
# [24] = 8.0 μg/ml, treatment 4 h post-infection
smiles,measurement,setting,value
CN[C@H](CC(C)C)C(=O)N[C@H]1C(=O)N[C@@H](CC(N)=O)C(=O)N[C@H]2C(=O)N[C@H]3C(=O)N[C@H](C(=O)N[C@H](C(=O)O)c4cc(O)cc(O)c4-c4cc3ccc4O)[C@H](O)c3ccc(c(Cl)c3)Oc3cc2cc(c3O[C@@H]2O[C@H](CO)[C@@H](O)[C@H](O)[C@H]2O[C@H]2C[C@](C)(N)[C@H](O)[C@H](C)O2)Oc2ccc(cc2Cl)[C@H]1O [Vancomycin],MIC,S. epidermidis UC-20207 [1],2 µg/mL
same,MIC,S. epidermidis UC-20208 [2],2 µg/mL
same,Adherence Mean OD550,S. epidermidis RP62A [3]; drug 1.0 μg/ml,1.728 ± 0.952
same,Adherence Mean OD550,S. epidermidis RP62A [3]; drug 2.0 μg/ml (MIC),0.000 ± 0.002*
same,inhibition at 0.5 µg/mL,S. epidermidis RP62A [3]; [8],0%
same,inhibition at 1 µg/mL,S. epidermidis RP62A [3]; [8],36.6%
same,inhibition at 2 µg/mL,S. epidermidis RP62A [3]; [8],100%
same,Adherence Mean OD550,S. epidermidis UC-20207 [4]; drug 0.5 μg/ml,2.177 ± 0.424
same,Adherence Mean OD550,S. epidermidis UC-20207 [4]; drug 2.0 μg/ml (MIC),0.001 ± 0.002*
same,inhibition at 0.5 µg/mL,S. epidermidis UC-20207 [4]; [9],0%
same,inhibition at 1 µg/mL,S. epidermidis UC-20207 [4]; [9],0%
same,inhibition at 2 µg/mL,S. epidermidis UC-20207 [4]; [9],100%
same,Mean OD550,S. epidermidis RP62A [5]; [10],0.664 ± 0.632
same,Mean OD550,S. epidermidis RP62A [5]; [11],1.147 ± 0.527
same,Mean OD550,S. epidermidis RP62A [5]; [12],2.311 ± 0.318
same,Mean OD550,S. epidermidis RP62A [5]; [13],2.202 ± 0.238
same,Mean OD550,S. epidermidis RP62A [5]; [14],0.002 ± 0.002
same,Mean OD550,S. epidermidis RP62A [5]; [15],0.000 ± 0.001
same,Mean OD550,S. epidermidis RP62A [5]; [16],1.312 ± 0.936
same,Mean OD550,S. epidermidis RP62A [5]; [17],2.114 ± 0.439
same,Mean OD550,S. epidermidis RP62A [5]; [18],0.002 ± 0.002
same,Mean OD550,S. epidermidis RP62A [5]; [19],0.000 ± 0.002
same,Mean OD550,S. epidermidis RP62A [5]; [20],0.003 ± 0.004
same,Mean OD550,S. epidermidis RP62A [5]; [21],1.562 ± 0.573
same,Mean OD550,S. epidermidis RP62A [5]; [22],0.001 ± 0.001
same,Mean OD550,S. epidermidis RP62A [5]; [23],0.000 ± 0.001
same,Mean OD550,S. epidermidis RP62A [5]; [24],0.004 ± 0.004
same,Mean OD550,"S. epidermidis RP62A [5]; 8.0 μg/ml, treatment 6 h post-infection",0.025 ± 0.030
same,inhibition at 1 µg/mL,S. epidermidis RP62A [5]; 0 h,69.3%
same,inhibition at 2 µg/mL,S. epidermidis RP62A [5]; 0 h,99.9%
same,inhibition at 4 µg/mL,S. epidermidis RP62A [5]; 0 h,99.9%
same,inhibition at 8 µg/mL,S. epidermidis RP62A [5]; 0 h,99.9%
same,inhibition at 1 µg/mL,S. epidermidis RP62A [5]; 2 h,41.4%
same,inhibition at 2 µg/mL,S. epidermidis RP62A [5]; 2 h,100%
same,inhibition at 4 µg/mL,S. epidermidis RP62A [5]; 2 h,100%
same,inhibition at 8 µg/mL,S. epidermidis RP62A [5]; 2 h,100%
same,inhibition at 1 µg/mL,S. epidermidis RP62A [5]; 4 h,0%
same,inhibition at 2 µg/mL,S. epidermidis RP62A [5]; 4 h,29.4%
same,inhibition at 4 µg/mL,S. epidermidis RP62A [5]; 4 h,99.8%
same,inhibition at 8 µg/mL,S. epidermidis RP62A [5]; 4 h,99.8%
same,inhibition at 1 µg/mL,S. epidermidis RP62A [5]; 6 h,0%
same,inhibition at 2 µg/mL,S. epidermidis RP62A [5]; 6 h,0%
same,inhibition at 4 µg/mL,S. epidermidis RP62A [5]; 6 h,19%
same,inhibition at 8 µg/mL,S. epidermidis RP62A [5]; 6 h,98.7%
same,inhibition at 1 µg/mL,"S. epidermidis UC-20208 [6]; UC20208, 0 h",0%
same,inhibition at 2 µg/mL,"S. epidermidis UC-20208 [6]; UC20208, 0 h",99.9%
same,inhibition at 4 µg/mL,"S. epidermidis UC-20208 [6]; UC20208, 0 h",99.9%
same,inhibition at 8 µg/mL,"S. epidermidis UC-20208 [6]; UC20208, 0 h",99.9%
same,inhibition at 1 µg/mL,"S. epidermidis UC-20208 [6]; UC20208, 2 h",0%
same,inhibition at 2 µg/mL,"S. epidermidis UC-20208 [6]; UC20208, 2 h",99.1%
same,inhibition at 4 µg/mL,"S. epidermidis UC-20208 [6]; UC20208, 2 h",100%
same,inhibition at 8 µg/mL,"S. epidermidis UC-20208 [6]; UC20208, 2 h",100%
same,inhibition at 1 µg/mL,"S. epidermidis UC-20208 [6]; UC20208, 4 h",0%
same,inhibition at 2 µg/mL,"S. epidermidis UC-20208 [6]; UC20208, 4 h",0%
same,inhibition at 4 µg/mL,"S. epidermidis UC-20208 [6]; UC20208, 4 h",85.1%
same,inhibition at 8 µg/mL,"S. epidermidis UC-20208 [6]; UC20208, 4 h",99.6%
same,inhibition at 1 µg/mL,"S. epidermidis UC-20208 [6]; UC20208, 6 h",0%
same,inhibition at 2 µg/mL,"S. epidermidis UC-20208 [6]; UC20208, 6 h",0%
same,inhibition at 4 µg/mL,"S. epidermidis UC-20208 [6]; UC20208, 6 h",0%
same,inhibition at 8 µg/mL,"S. epidermidis UC-20208 [6]; UC20208, 6 h",0%
same,Mean OD550,S. epidermidis UC-20208 [6]; [10],1.865 ± 0.309
same,Mean OD550,S. epidermidis UC-20208 [6]; [11],1.865 ± 0.435
same,Mean OD550,S. epidermidis UC-20208 [6]; [12],1.752 ± 0.566
same,Mean OD550,S. epidermidis UC-20208 [6]; [13],1.127 ± 0.463
same,Mean OD550,S. epidermidis UC-20208 [6]; [14],0.001 ± 0.000
same,Mean OD550,S. epidermidis UC-20208 [6]; [15],0.014 ± 0.036
same,Mean OD550,S. epidermidis UC-20208 [6]; [16],2.414 ± 0.558
same,Mean OD550,S. epidermidis UC-20208 [6]; [17],1.281 ± 0.555
same,Mean OD550,S. epidermidis UC-20208 [6]; [18],0.001 ± 0.001
same,Mean OD550,S. epidermidis UC-20208 [6]; [19],0.000 ± 0.001
same,Mean OD550,S. epidermidis UC-20208 [6]; [20],0.239 ± 0.261
same,Mean OD550,S. epidermidis UC-20208 [6]; [21],1.555 ± 0.206
same,Mean OD550,S. epidermidis UC-20208 [6]; [22],0.001 ± 0.001
same,Mean OD550,S. epidermidis UC-20208 [6]; [23],0.000 ± 0.001
same,Mean OD550,S. epidermidis UC-20208 [6]; [24],0.006 ± 0.002
same,activity against cell adhesion,[7]; subtherapeutic concentrations (one-half MIC),minimal or no activity against cell adhesion
same,anti-adhesion activity,"[7]; therapeutic levels, administered 2 hours post-infection, compared with linezolid",equally effective
same,anti-adhesion activity,[7]; treatments delayed by 4 to 6 hours,only the highest concentrations (>MIC) demonstrated anti-adhesion activity

# — patent publication US7322965B2, “Infection-resistant medical devices” (priority 2002, dated 2008)
